Data published in ChEMBL document CHEMBL1201862, “PubChem BioAssay data set” (2004).
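Following 48 hours of exposure in 96-well plates, responses at five concentrations were used to interpolate endpoints linearly. Abbreviation: GI50, concentration required for 50% inhibition of growth.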 Active and inactive are the calls of the source. Cut-off read from the data, not from the text of the source: active = GI50 up to about 1.1 µM and inactive = higher.

Assays:
Experiment in all cases: NCI tumour cell line growth inhibition, 48 h
ACHN = test system: ACHN
CAKI-1 = test system: CAKI-1
HL-60 = test system: HL-60
K562 = test system: K562
OVCAR-4 = test system: OVCAR-4
RPMI-8226 = test system: RPMI-8226
RXF 393 = test system: RXF 393
SK-MEL-5 = test system: SK-MEL-5
SNB-19 = test system: SNB-19
SR = test system: SR
TK-10 = test system: TK-10
UO-31 = test system: UO-31
RXF 631 = test system: RXF 631
SF-295 = test system: SF-295
SNB-75 = test system: SNB-75
SNB-78 = test system: SNB-78
UACC-257 = test system: UACC-257

Measured: GI50

CC(C)OP(=O)(OC(C)C)C1=NN(c2ccc([N+](=O)[O-])cc2)C(P(=O)(OC(C)C)OC(C)C)=NN1c1ccc([N+](=O)[O-])cc1
inactive: ACHN > 100 µM | CAKI-1 63.5 µM | HL-60 2.55 µM | K562 6.95 µM | OVCAR-4 > 100 µM | RPMI-8226 5.62 µM | RXF 393 > 100 µM | SK-MEL-5 24.5 µM | SNB-19 > 100 µM | SR 9.08 µM | TK-10 > 100 µM | UO-31 95.7 µM

Cc1cn([C@@H]2C[C@H](CO)[C@@H](O)C2)c(=O)[nH]c1=O
inactive: ACHN > 100 µM | HL-60 > 100 µM | K562 > 100 µM | OVCAR-4 > 100 µM | RXF 631 > 100 µM | SF-295 > 100 µM | SNB-19 > 100 µM | SNB-75 78.9 µM | SNB-78 > 100 µM | UACC-257 > 100 µM | UO-31 > 100 µM
